Each structure is given as a SMILES string.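 These data come from cells grown in 96-well plates and exposed to compound for 48 hours at five concentrations. TGI: total growth inhibition.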

One assay deals with U251 CNS. The assay is described as follows: growth of human tumour cells (NCI), 48 h.
On to `CCOC(CN=C=S)OCC`, for which the TGI is greater than 10 µM.

In the case of `COc1cccc(-c2c(C#N)c(N)nc3c2CCS(=O)(=O)c2ccc(C)cc2-3)c1`, the TGI is greater than 100 µM.

On to `CCOC(=O)c1c(N)sc2c1C(C(=O)OCC)CC2` (centres undefined), for which the TGI was greater than 100 µM.

With `COC(=O)C(CC12CC3CC(CC(C3)C1)C2)NC(=O)C(N)CC(=O)O` (centres undefined), the TGI was greater than 100 µM.

In turn, `O=C1C(Cl)=C(OCCCCl)C(=O)c2c(O)ccc(O)c21` registered a TGI of 13.8 µM.

`NC(=O)NNc1nc2ccccc2c(=O)n1NC(=O)C(=O)Nc1ccc(Cl)cc1Cl` returned a TGI greater than 100 µM.

In turn, `Cc1nc2cccc(F)c2c(=O)n1C1CCCCNC1=O` (centres undefined) yielded a TGI greater than 10 µM.

Turning to `O=Nc1c(O)cc(Nc2ccc(Br)cc2)c2ccccc12`, the TGI is 40.8 µM.

Regarding `C=CC/C=C/Cc1csc(C(C)(C)C(O)C/C=C/C(=C)CCNC(=O)OC)n1` (centres undefined), the TGI is greater than 100 µM.

Consider `CCN(CC)CCCNc1nc(=O)[nH]c(C)c1C(=O)Nc1cccc2cc3ccccc3cc12`, for which the TGI was greater than 100 µM.

`c1ccc([P+](Cc2ccc(C[P+](c3ccccc3)(c3ccccc3)c3ccccc3)cc2)(c2ccccc2)c2ccccc2)cc1` yielded a TGI greater than 100 µM.

`O=S(=O)(O)c1ccc(O)c2ncc(Cl)cc12` yielded a TGI greater than 100 µM.

Turning to `C[n+]1c2ccccc2c(C(=O)Nc2ccc(S(=O)(=O)Nc3ccnn3-c3ccccc3)cc2)c2ccccc21`, the TGI was greater than 100 µM.

Another assay concerns MCF7 breast. The assay is described as follows: growth of human tumour cells (NCI), 48 h.
Consider `O=C(CCCN1CCC2(CC1)OC(=O)N(c1ccccc1)C2=O)c1ccccc1`, for which the TGI is greater than 100 µM.

As for `O=C1c2c(ccc3c2CCCC3)CC12Cc1ccc3c(c1C2=O)CCCC3`, the TGI was greater than 100 µM.

Take `CCOC(CN=C=S)OCC`: the TGI is greater than 10 µM.

For the compound `CCOC(=O)c1c(N)sc2c1C(C(=O)OCC)CC2` (centres undefined), the TGI is greater than 100 µM.

In the case of `O=C1C(Cl)=C(OCCCCl)C(=O)c2c(O)ccc(O)c21`, the TGI is 3.12 µM.

`NC(=O)NNc1nc2ccccc2c(=O)n1NC(=O)C(=O)Nc1ccc(Cl)cc1Cl` returned a TGI greater than 100 µM.

For the compound `Cc1nc2cccc(F)c2c(=O)n1C1CCCCNC1=O` (centres undefined), the TGI was greater than 10 µM.

In turn, `O=Nc1c(O)cc(Nc2ccc(Br)cc2)c2ccccc12` gave a TGI of 17.8 µM.

For `C=CC/C=C/Cc1csc(C(C)(C)C(O)C/C=C/C(=C)CCNC(=O)OC)n1` (centres undefined), the TGI is greater than 100 µM.

Take `CCN(CC)CCCNc1nc(=O)[nH]c(C)c1C(=O)Nc1cccc2cc3ccccc3cc12`: the TGI was greater than 100 µM.

`c1ccc([P+](Cc2ccc(C[P+](c3ccccc3)(c3ccccc3)c3ccccc3)cc2)(c2ccccc2)c2ccccc2)cc1` displayed a TGI greater than 100 µM.

`O=S(=O)(O)c1ccc(O)c2ncc(Cl)cc12` yielded a TGI greater than 100 µM.

Take `C[n+]1c2ccccc2c(C(=O)Nc2ccc(S(=O)(=O)Nc3ccnn3-c3ccccc3)cc2)c2ccccc21`: the TGI was greater than 100 µM.

For another assay, the system named is BT-549 breast. The assay is described as follows: growth of human tumour cells (NCI), 48 h.
With `COc1cccc(-c2c(C#N)c(N)nc3c2CCS(=O)(=O)c2ccc(C)cc2-3)c1`, the TGI was greater than 100 µM.

Compound `CCOC(=O)c1c(N)sc2c1C(C(=O)OCC)CC2` (centres undefined) registered a TGI greater than 100 µM.

`COC(=O)C(CC12CC3CC(CC(C3)C1)C2)NC(=O)C(N)CC(=O)O` (centres undefined) displayed a TGI greater than 100 µM.

`O=C1C(Cl)=C(OCCCCl)C(=O)c2c(O)ccc(O)c21` gave a TGI of 3.86 µM.

In the case of `NC(=O)NNc1nc2ccccc2c(=O)n1NC(=O)C(=O)Nc1ccc(Cl)cc1Cl`, the TGI is greater than 100 µM.

`C=CC/C=C/Cc1csc(C(C)(C)C(O)C/C=C/C(=C)CCNC(=O)OC)n1` (centres undefined) returned a TGI greater than 100 µM.

In turn, `O=S(=O)(O)c1ccc(O)c2ncc(Cl)cc12` returned a TGI greater than 100 µM.

With `C[n+]1c2ccccc2c(C(=O)Nc2ccc(S(=O)(=O)Nc3ccnn3-c3ccccc3)cc2)c2ccccc21`, the TGI is greater than 100 µM.

Another assay concerns M14 melanoma. The experiment in a line: growth of human tumour cells (NCI), 48 h.
For the compound `O=C(CCCN1CCC2(CC1)OC(=O)N(c1ccccc1)C2=O)c1ccccc1`, the TGI was greater than 100 µM.

`O=C1c2c(ccc3c2CCCC3)CC12Cc1ccc3c(c1C2=O)CCCC3` had a TGI greater than 100 µM.

`CCOC(CN=C=S)OCC` had a TGI greater than 10 µM.

The compound `COc1cccc(-c2c(C#N)c(N)nc3c2CCS(=O)(=O)c2ccc(C)cc2-3)c1` displayed a TGI greater than 100 µM.

The compound `CCOC(=O)c1c(N)sc2c1C(C(=O)OCC)CC2` (centres undefined) gave a TGI greater than 100 µM.

Compound `O=C1C(Cl)=C(OCCCCl)C(=O)c2c(O)ccc(O)c21` showed a TGI of 2.96 µM.

As for `NC(=O)NNc1nc2ccccc2c(=O)n1NC(=O)C(=O)Nc1ccc(Cl)cc1Cl`, the TGI was greater than 100 µM.

`Cc1nc2cccc(F)c2c(=O)n1C1CCCCNC1=O` (centres undefined) yielded a TGI greater than 10 µM.

Consider `O=Nc1c(O)cc(Nc2ccc(Br)cc2)c2ccccc12`, for which the TGI turned out to be 3.03 µM.

`C=CC/C=C/Cc1csc(C(C)(C)C(O)C/C=C/C(=C)CCNC(=O)OC)n1` (centres undefined) gave a TGI greater than 100 µM.

Consider `CCN(CC)CCCNc1nc(=O)[nH]c(C)c1C(=O)Nc1cccc2cc3ccccc3cc12`, for which the TGI was greater than 100 µM.

`c1ccc([P+](Cc2ccc(C[P+](c3ccccc3)(c3ccccc3)c3ccccc3)cc2)(c2ccccc2)c2ccccc2)cc1` had a TGI greater than 100 µM.

In turn, `O=S(=O)(O)c1ccc(O)c2ncc(Cl)cc12` displayed a TGI greater than 100 µM.

For the compound `C[n+]1c2ccccc2c(C(=O)Nc2ccc(S(=O)(=O)Nc3ccnn3-c3ccccc3)cc2)c2ccccc21`, the TGI was greater than 100 µM.

The next assay deals with HCT-15 colon. The experiment in a line: growth of human tumour cells (NCI), 48 h.
Turning to `O=C(CCCN1CCC2(CC1)OC(=O)N(c1ccccc1)C2=O)c1ccccc1`, the TGI was greater than 100 µM.

With `O=C1c2c(ccc3c2CCCC3)CC12Cc1ccc3c(c1C2=O)CCCC3`, the TGI is greater than 100 µM.

`CCOC(CN=C=S)OCC`: the TGI was greater than 10 µM.

The compound `COc1cccc(-c2c(C#N)c(N)nc3c2CCS(=O)(=O)c2ccc(C)cc2-3)c1` registered a TGI greater than 100 µM.

As to `CCOC(=O)c1c(N)sc2c1C(C(=O)OCC)CC2` (centres undefined), the TGI is greater than 100 µM.

`COC(=O)C(CC12CC3CC(CC(C3)C1)C2)NC(=O)C(N)CC(=O)O` (centres undefined) had a TGI greater than 100 µM.

Turning to `O=C1C(Cl)=C(OCCCCl)C(=O)c2c(O)ccc(O)c21`, the TGI was found to be 5.06 µM.

In the case of `NC(=O)NNc1nc2ccccc2c(=O)n1NC(=O)C(=O)Nc1ccc(Cl)cc1Cl`, the TGI is greater than 100 µM.

For the compound `Cc1nc2cccc(F)c2c(=O)n1C1CCCCNC1=O` (centres undefined), the TGI is greater than 10 µM.

With `O=Nc1c(O)cc(Nc2ccc(Br)cc2)c2ccccc12`, the TGI was 15 µM.

For `C=CC/C=C/Cc1csc(C(C)(C)C(O)C/C=C/C(=C)CCNC(=O)OC)n1` (centres undefined), the TGI was greater than 100 µM.

In the case of `CCN(CC)CCCNc1nc(=O)[nH]c(C)c1C(=O)Nc1cccc2cc3ccccc3cc12`, the TGI was greater than 100 µM.

In turn, `c1ccc([P+](Cc2ccc(C[P+](c3ccccc3)(c3ccccc3)c3ccccc3)cc2)(c2ccccc2)c2ccccc2)cc1` showed a TGI greater than 100 µM.

`O=S(=O)(O)c1ccc(O)c2ncc(Cl)cc12` gave a TGI greater than 100 µM.

Turning to `C[n+]1c2ccccc2c(C(=O)Nc2ccc(S(=O)(=O)Nc3ccnn3-c3ccccc3)cc2)c2ccccc21`, the TGI is greater than 100 µM.

In a further assay the test system is SK-MEL-28 melanoma. The assay is described as follows: growth of human tumour cells (NCI), 48 h.
Turning to `O=C(CCCN1CCC2(CC1)OC(=O)N(c1ccccc1)C2=O)c1ccccc1`, the TGI is greater than 100 µM.

`O=C1c2c(ccc3c2CCCC3)CC12Cc1ccc3c(c1C2=O)CCCC3` displayed a TGI greater than 100 µM.

Take `CCOC(CN=C=S)OCC`: the TGI is greater than 10 µM.

For the compound `COc1cccc(-c2c(C#N)c(N)nc3c2CCS(=O)(=O)c2ccc(C)cc2-3)c1`, the TGI is greater than 100 µM.

On to `CCOC(=O)c1c(N)sc2c1C(C(=O)OCC)CC2` (centres undefined), for which the TGI is greater than 100 µM.

Take `COC(=O)C(CC12CC3CC(CC(C3)C1)C2)NC(=O)C(N)CC(=O)O` (centres undefined): the TGI is greater than 100 µM.
